Each compound was assayed against Histamine H3 receptor (Cavia porcellus, UniProt Q9JI35) (assay: Ability to displace [3H]R-alpha-methylhistamine from histamine H3 receptor in guinea pig ileum longitudinal muscle myenteric plexus(LMMP) membranes).
Assay type: tissue-based

Sequence of Histamine H3 receptor (Q9JI35 whole entry): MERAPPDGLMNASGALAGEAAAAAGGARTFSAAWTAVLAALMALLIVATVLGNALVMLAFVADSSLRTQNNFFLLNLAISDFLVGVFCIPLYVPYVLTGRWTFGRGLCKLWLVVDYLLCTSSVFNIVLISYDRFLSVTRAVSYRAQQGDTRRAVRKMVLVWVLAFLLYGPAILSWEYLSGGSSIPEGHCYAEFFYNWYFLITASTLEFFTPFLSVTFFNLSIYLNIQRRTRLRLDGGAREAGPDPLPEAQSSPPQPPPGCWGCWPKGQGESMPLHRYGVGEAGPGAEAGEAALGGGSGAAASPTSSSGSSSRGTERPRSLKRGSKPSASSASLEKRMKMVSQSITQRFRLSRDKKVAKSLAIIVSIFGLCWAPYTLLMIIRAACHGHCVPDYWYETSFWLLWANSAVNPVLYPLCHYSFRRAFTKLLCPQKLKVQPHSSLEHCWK

| Ki | SMILES |
| --- | --- |
| 13.2 nM | O=S(=O)(NCCCCCCCCc1c[nH]cn1)NCc1ccc(Cl)cc1 |
| 2.63 nM | O=S(=O)(NCCCCc1c[nH]cn1)NCc1ccc(C(F)(F)F)cc1 |

These compounds were tested against Histamine H3 receptor (Cavia porcellus) (UniProt Q9JI35) (assay: Inhibition of neurogenic contractions in guinea pig ileum mediated by histamine H3 receptors).
Sequence of Histamine H3 receptor (Cavia porcellus) (Q9JI35 whole entry): as above
Assay type: functional, tissue-based

| pKB | SMILES |
| --- | --- |
| 8.2 | O=S(=O)(NCCCCCc1c[nH]cn1)NCc1ccc(Cl)cc1 |
| 7.36 | O=S(=O)(Cc1ccc(Cl)cc1)NCCCCCCCc1c[nH]cn1 |
| 8.68 | O=S(=O)(NCCCCc1c[nH]cn1)NCc1ccc(Cl)cc1 |
| 7.89 | O=S(=O)(Cc1ccc(C(F)(F)F)cc1)NCCCCc1c[nH]cn1 |
| 8.49 | O=S(=O)(NCCCCc1c[nH]cn1)NCc1ccc(I)cc1 |
| 8.01 | O=S(=O)(Cc1ccc(Cl)cc1)NCCCCCCc1c[nH]cn1 |
| 7.37 | O=S(=O)(NCCCCCCCCc1c[nH]cn1)NCc1ccc(Cl)cc1 |
| 6.42 | O=S(=O)(NCCCCc1c[nH]cn1)NCc1ccccc1Cl |
| 8.32 | O=S(=O)(NCCCCc1c[nH]cn1)NCc1ccc(-c2ccccc2)cc1 |
| 7.33 | O=S(=O)(Cc1ccc(Cl)cc1)NCCCCCc1c[nH]cn1 |
| 7.86 | O=S(=O)(NCCCCc1c[nH]cn1)NCc1cccc(Cl)c1 |
| 8.48 | O=S(=O)(NCCCCc1c[nH]cn1)NCc1ccc(C(F)(F)F)cc1 |
| 7.06 | COc1ccc(CNS(=O)(=O)NCCCCc2c[nH]cn2)cc1 |
| 8.37 | O=S(=O)(NCCCCCCCc1c[nH]cn1)NCc1ccc(Cl)cc1 |
| 8.1 | O=S(=O)(Cc1ccc(-c2ccccc2)cc1)NCCCCc1c[nH]cn1 |
| < 5 | O=S(=O)(Cc1ccc(Cl)cc1)NCCCCCCCCCCc1c[nH]cn1 |
| 8.77 | O=S(=O)(NCCCCCCc1c[nH]cn1)NCc1ccc(Cl)cc1 |
| 7.7 | O=S(=O)(NCCCCc1c[nH]cn1)NCc1ccc(F)cc1 |
| < 5 | O=S(=O)(NCCCCCCCCCCc1c[nH]cn1)NCc1ccc(Cl)cc1 |
| 6.64 | O=S(=O)(Cc1ccc(Cl)cc1)NCCCCCCCCc1c[nH]cn1 |
| 8.91 | O=S(=O)(NCCCCc1c[nH]cn1)NCc1ccc(Br)cc1 |

| SMILES | pKB |
| --- | --- |
| O=S(=O)(NCCCc1c[nH]cn1)NCc1ccc(Cl)cc1 | 7.04 |
| O=S(=O)(Cc1ccc(Cl)cc1)NCCCc1c[nH]cn1 | 6.29 |
| O=S(=O)(Cc1ccc(Br)cc1)NCCCCc1c[nH]cn1 | 7.68 |
| O=S(=O)(Cc1ccc(F)cc1)NCCCCc1c[nH]cn1 | 7.32 |
| O=S(=O)(NCCCCc1c[nH]cn1)NCc1ccccc1 | 7.01 |
| O=S(=O)(Cc1ccc(Cl)cc1)NCCCCc1c[nH]cn1 | 8.62 |

Reference: ChEMBL document CHEMBL1132515, “4-Chlorobenzyl sulfonamide and sulfamide derivatives of histamine homologues: the design of potent histamine H3 receptor antagonists” (Bioorg Med Chem Lett, 1999)
